Values quoted from earlier work, collected in patent US20060106545A1, “Methods of clustering proteins” (Jubilant Biosys Ltd., priority 2004, published 2006).

How the values were obtained:
[1] = target: T1, SAPK3 (Stress-activated protein kinase 3) (Homo sapiens, UniProt P53778)
T1 sequence (P53778 1-367): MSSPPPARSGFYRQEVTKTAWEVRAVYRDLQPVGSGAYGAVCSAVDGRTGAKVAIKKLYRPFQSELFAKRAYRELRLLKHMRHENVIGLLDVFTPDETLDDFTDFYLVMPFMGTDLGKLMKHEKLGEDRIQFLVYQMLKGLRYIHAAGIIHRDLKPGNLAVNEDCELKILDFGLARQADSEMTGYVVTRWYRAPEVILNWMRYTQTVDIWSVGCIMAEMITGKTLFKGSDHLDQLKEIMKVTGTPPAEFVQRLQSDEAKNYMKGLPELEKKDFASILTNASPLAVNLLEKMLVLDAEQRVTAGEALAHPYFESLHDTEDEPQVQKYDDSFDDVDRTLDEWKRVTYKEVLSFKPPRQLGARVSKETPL

SAPK2 = settings: kinase SAPK2
PKB (Protein kinase B) = PKB (Protein kinase B) (Homo sapiens, UniProt P31749)
[2] = tested on: MKK (Mitogen activated protein kinase kinase)
CK2 (Casein kinase 2) = CK2 (Casein kinase 2) (Homo sapiens, UniProt P68400)
[3] = target: MAPK2 (Mitogen-activated protein kinase 2) (Homo sapiens, UniProt P28482)
MAPK2 (Mitogen-activated protein kinase 2), sequence (P28482 whole entry): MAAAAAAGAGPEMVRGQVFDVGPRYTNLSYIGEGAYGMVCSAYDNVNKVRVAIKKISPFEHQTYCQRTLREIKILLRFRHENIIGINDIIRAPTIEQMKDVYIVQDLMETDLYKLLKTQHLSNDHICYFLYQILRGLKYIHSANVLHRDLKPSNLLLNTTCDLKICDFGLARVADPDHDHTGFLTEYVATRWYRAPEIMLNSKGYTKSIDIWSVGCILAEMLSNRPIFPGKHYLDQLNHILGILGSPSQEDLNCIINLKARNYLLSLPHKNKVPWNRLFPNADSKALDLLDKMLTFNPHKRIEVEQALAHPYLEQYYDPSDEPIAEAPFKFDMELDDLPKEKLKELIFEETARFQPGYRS

PKB (Protein kinase B), sequence (P31749 whole entry): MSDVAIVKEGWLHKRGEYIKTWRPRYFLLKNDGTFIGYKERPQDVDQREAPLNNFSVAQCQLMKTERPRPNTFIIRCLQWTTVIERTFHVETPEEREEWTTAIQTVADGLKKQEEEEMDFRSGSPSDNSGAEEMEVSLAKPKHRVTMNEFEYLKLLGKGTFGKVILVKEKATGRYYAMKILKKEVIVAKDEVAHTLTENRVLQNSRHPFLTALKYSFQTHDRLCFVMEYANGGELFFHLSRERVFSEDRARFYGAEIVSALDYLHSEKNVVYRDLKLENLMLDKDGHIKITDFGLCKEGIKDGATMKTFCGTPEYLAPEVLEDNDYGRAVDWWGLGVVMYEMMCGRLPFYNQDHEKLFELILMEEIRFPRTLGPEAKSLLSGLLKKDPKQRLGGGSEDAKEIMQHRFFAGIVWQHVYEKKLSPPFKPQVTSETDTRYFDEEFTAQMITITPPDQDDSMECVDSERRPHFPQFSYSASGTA
CK2 (Casein kinase 2), sequence (P68400 whole entry): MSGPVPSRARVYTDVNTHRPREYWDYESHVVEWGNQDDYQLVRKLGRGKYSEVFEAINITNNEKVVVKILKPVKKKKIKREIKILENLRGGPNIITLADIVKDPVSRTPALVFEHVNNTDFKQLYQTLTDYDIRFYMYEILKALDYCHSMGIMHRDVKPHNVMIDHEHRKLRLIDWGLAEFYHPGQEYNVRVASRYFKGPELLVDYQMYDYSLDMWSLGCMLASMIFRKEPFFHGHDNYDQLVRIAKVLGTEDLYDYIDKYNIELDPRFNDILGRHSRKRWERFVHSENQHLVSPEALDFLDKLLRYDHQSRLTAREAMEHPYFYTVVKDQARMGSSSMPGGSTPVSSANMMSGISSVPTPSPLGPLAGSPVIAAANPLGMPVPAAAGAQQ

percentage of expression, Bain et al., (2003) [1]	Structure (SMILES)	% of Expression Bain et al. (SAPK2) [%]	% of Expression Bain et al., (2002) (PKB (Protein kinase B))	% of Expression Bain et al. [2] [%]	% of Expression Bain et al., (2002) (CK2 (Casein kinase 2)) [%]	% of Expression Bain et al., (2002) [3]
more than 80%	CC(C)[C@H](CO)Nc1nc(Nc2cccc(Cl)c2)c2ncn(C(C)C)c2n1 [Purvalanol]	>80	–	–	–	–
–	O=C1Cc2c([nH]c3ccc(Br)cc23)-c2ccccc2N1 [Kenpaullone]	–	40-60%	>80	>80	60-80%
